Laboratory results reported in paper PMC3254807 (2011).

Biological target: Na+/K+ ATPase
Test: colorimetric ATPase assay
Type: biochemical, Sus scrofa

| SMILES | IC50 [µM] |
| --- | --- |
| C[C@H]1O[C@@H](O[C@H]2[C@@H](O)C[C@H](O[C@H]3[C@@H](O)C[C@H](O[C@H]4CC[C@@]5(C)[C@H](CC[C@@H]6[C@@H]5CC[C@]5(C)[C@@H](C7=CC(=O)OC7)CC[C@]65O)C4)O[C@@H]3C)O[C@@H]2C)C[C@H](O)[C@@H]1O [Digitoxin] | 2.8 |
| C[C@@H]1O[C@@H](O[C@H]2CC[C@@]3(C)[C@H](CC[C@@H]4[C@@H]3CC[C@]3(C)[C@@H](C5=CC(=O)OC5)CC[C@]43O)C2)[C@H](O)[C@H](O)[C@H]1O [D6-MA] | 1.1 |
